In brackets after ≈: the same amount, converted by molar mass. Where two headings read alike, the source gives them in different places.
Experiments:
[1] = system: chloroquine-resistant K1 strain of P. falciparum; assay: In vitro antimalarial semiautomated microdilution assay ([3H]-hypoxanthine incorporation), K1 strain; assay type: cell-based, Plasmodium falciparum; conditions: Plasmodium falciparum
Protocol: (§1) Various OZ compounds were tested by the semiautomated microdilution assay against intraerythrocytic forms of Plasmodium falciparum derived from asynchronous stock cultures.
(§2) Fifty percent inhibitory concentration (IC50) were estimated by Logit regression analysis.

[2] = system: ANKA strain of P. berghei; assay: Single dose STI in vivo screen in infected mice; design: species or system Plasmodium berghei; conditions: for Survival (days) 10 mg/kg po: single 10 mg/kg po in 3% ethanol and 7% Tween 80; for Survival (days) 10 mg/kg po / Survival (days) 10 mg/kg SSV po / Survival (days) 10 mg/kg sc: untreated 6-7 days; for Activity (%) 10 mg/kg po: single 10 mg/kg po in 3% ethanol and 7% Tween 80 on day 1 post-infection; for Activity (%) 10 mg/kg po / Activity (%) 10 mg/kg SSV po / Activity (%) 10 mg/kg sc / Activity (%) 3 mg/kg SSV po: percent reduction in parasitemia on day 3; for Survival (days) 10 mg/kg SSV po: single 10 mg/kg po in SSV; for Activity (%) 10 mg/kg SSV po: single 10 mg/kg po in standard suspending vehicle (SSV) on day 1 post-infection; for Survival (days) 10 mg/kg sc: single 10 mg/kg sc in 3% ethanol and 7% Tween 80; for Activity (%) 10 mg/kg sc: single 10 mg/kg sc in 3% ethanol and 7% Tween 80 on day 1 post-infection; for Survival (days) 3 mg/kg SSV po / Activity (%) 3 mg/kg SSV po: single 3 mg/kg po in SSV
Protocol: In the single dose STI in vivo screen, Moro SPF or NMRI mice infected with the ANKA strain of P. berghei (groups of three mice) were treated on day one post-infection with trioxolanes dissolved or suspended in 3% ethanol and 7% Tween 80. […] SSV consists of 0.5% w/v CMC, 0.5% v/v benzyl alcohol, 0.4% v/v Tween 80, and 0.9% w/v sodium chloride in water. Antimalarial activity was measured by percent reduction in parasitemia on day three post-infection and survival times compared to an untreated control group. Survival to day 30 post-infection is considered to be a cure. […] Other factors influencing antimalarial activity include the stability of carbon radicals formed by β-scission subsequent to the initial electron transfer to the peroxide bond and the influence of steric effects remote from the peroxide bond on the interactions between carbon radicals and potential drug targets.
Moro NMRI male mice (Fu Albino specific pathogen free) weighing 18±2 g were infected intravenously (i.v.) with 2×10^7 P. berghei ANKA strain-infected erythrocytes from donor mice on day 0 of the experiment. From donor mice with circa 30% parasitemia, heparinized blood was taken and diluted in physiological saline to 10^8 parasitized erythrocytes per ml. An aliquot (0.2 ml) of this suspension was injected i.v. into experimental and control groups of mice. […] Throughout the experiments, mice were kept in groups of three or five animals in Makrolon type II cages in an air-conditioned animal room at 22 to 23° C.
They were administered per os (p.o.) in a total volume of 0.01 ml per gram of mouse. The activity of the compound was determined by a variety of methods outlined in subsequent sections. Survival time was also recorded, and survival to day 30 post-infection was considered to be a cure.

[3] = system: chloroquine-sensitive NF54 strain of P. falciparum; assay: In vitro antimalarial semiautomated microdilution assay ([3H]-hypoxanthine incorporation), NF54 strain; assay type: cell-based, Plasmodium falciparum; conditions: Plasmodium falciparum
Protocol: as §1, §2

[4] = K1, 72 h, read-out: IC50 (ng/ml) K1, chloroquine-resistant K1 strain, 72 h incubation
[5] = NF54, 72 h, read-out: IC50 (ng/ml) NF54, chloroquine-sensitive NF54 strain, 72 h incubation
[6] = chloroquine-resistant K1 strain, 72 h incubation, read-out: IC50 (ng/ml) K1

| SMILES | IC50 [1, 4] [ng/mL] | Survival (days) 10 mg/kg po [2] | Activity (%) 10 mg/kg po [2] [%] | Survival (days) 10 mg/kg SSV po [2] | Activity (%) 10 mg/kg SSV po [2] [%] | Survival (days) 10 mg/kg sc [2] | Activity (%) 10 mg/kg sc [2] [%] | IC50 [3, 5] [ng/mL] | IC50 [1, 6] [ng/mL] | Survival (days) 3 mg/kg SSV po [2] [days] | Activity (%) 3 mg/kg SSV po [2] [%] | IC50 ([3]; chloroquine-sensitive NF54 strain, 72 h incubation, read-out: IC50 (ng/ml) NF54) [ng/mL] |
| --- | --- | --- | --- | --- | --- | --- | --- | --- | --- | --- | --- | --- |
| CC1(C)C2CCC1(CS(=O)(=O)N1CCC3(CC1)OOC1(O3)C3CC4CC(C3)CC1C4)C(=O)C2 (stereo not drawn) [OZ91, Adamantane-2-spiro-3′-8′-[(1′S)-10′-camphorsulfonyl]-1′,2′,4′-trioxa-8′-azaspiro[4.5]decane] | 1.4 (≈ 2.92 nM) | 5.7 days | 20 | 6.0 days | 0 | 7.3 days | 85 | 0.42 (≈ 0.876 nM) | – | – | – | – |
| CCCCS(=O)(=O)N1CCC2(CC1)OOC1(O2)C2CC3CC(C2)CC1C3 (centres unmarked) [OZ92, Adamantane-2-spiro-3′-8′-(1′-butanesulfonyl)-1′,2′,4′-trioxa-8′-azaspiro[4.5]decane] | 1.6 (≈ 4.15 nM) | 6.7 days | 81 | 6.3 days | 35 | 10.0 days | 99.98 | 0.4 (≈ 1.04 nM) | – | – | – | – |
| O=C(CN1C(=O)c2ccccc2C1=O)N1CCC2(CC1)OOC1(O2)C2CC3CC(C2)CC1C3 (centres unmarked) [OZ93, Adamantane-2-spiro-3′-8′-(phthalimidoacetyl)-1′,2′,4′-trioxa-8′-azaspiro[4.5]decane] | 3.3 (≈ 7.29 nM) | 6.7 days | 57 | 6.0 days | 3 | 13.3 days | 100 | 0.92 (≈ 2.03 nM) | – | – | – | – |
| c1ccc2c(c1)-c1ccccc1C21OOC2(O1)C1CC3CC(C1)CC2C3 (centres unmarked) [OZ94, Adamantane-2-spiro-3′-1′,2′,4′-trioxolane-5′-spiro-9″-fluorene] | 57 (≈ 165 nM) | 6.0 days | 21 | 5.7 days | 0 | 5.3 days | 11 | 28 (≈ 80.8 nM) | – | – | – | – |
| O=[N+]([O-])c1ccc(C2(c3ccccc3)OOC3(O2)C2CC4CC(C2)CC3C4)cc1 (centres unmarked) [OZ95, Adamantane-2-spiro-3′-5′-(4′-nitrophenyl)-5′-phenyl-1′,2′,4′-trioxolane] | 2.8 (≈ 7.12 nM) | 6.0/6.0/6.0 days | 31 | 6.0/6.0/6.0 days | 0 | 6.0/6.0/6.0 days | 49 | 1.3 (≈ 3.3 nM) | – | – | – | – |
| CN(C)C(=O)N1CCC2(CC1)OOC1(O2)C2CC3CC(C2)CC1C3 (centres unmarked) [OZ133, Adamantane-2-spiro-3′-8′-[(dimethylamino)carbonyl]-1′,2′,4′-trioxa-8′-azaspiro[4.5]decane] | 0.7 (≈ 2.08 nM) | 7.0 days | 94 | 7.3 days | 97 | 7.0 days | 72 | – | – | – | – | – |
| N[C@H]1CC[C@]2(CC1)OOC1(O2)C2CC3CC(C2)CC1C3 (some centres unmarked) [OZ137] | – | 5.7 days | 0 | 6.3 days | 6 | 7.0 days | 61 | 18 (≈ 64.4 nM) | – | – | – | – |
| C1CCC(NC2CCC3(CC2)OOC2(O3)C3CC4CC(C3)CC2C4)CC1 (centres unmarked) [OZ162] | 0.5 (≈ 1.38 nM) | – | – | – | – | – | – | 0.71 (≈ 1.96 nM) | – | – | – | – |
| CC(C)N(C(=O)N1CCC2(CC1)OOC1(O2)C2CC3CC(C2)CC1C3)C(C)C (centres unmarked) [OZ194, Adamantane-2-spiro-3′-8′-[(diisopropylamino)carbonyl]-1′,2′,4′-trioxa-8′-azaspiro[4.5]decane] | – | 8.3 days | 87 | 8.0 days | 73 | 20.3 days | 99.95 | 6.6 (≈ 16.8 nM) | – | – | – | – |
| CC(C)(C)CC(=O)N[C@H]1CC[C@]2(CC1)OOC1(O2)C2CC3CC(C2)CC1C3 (some centres unmarked) [OZ195] | 2.2 (≈ 5.83 nM) | – | – | – | – | – | – | 3.7 (≈ 9.8 nM) | – | – | – | – |
| O=C1CCC(=O)N1C[C@H]1CC[C@]2(CC1)OOC1(O2)C2CC3CC(C2)CC1C3 (some centres unmarked) [OZ197] | 1 (≈ 2.66 nM) | – | – | – | – | – | – | 2 (≈ 5.33 nM) | – | – | – | – |
| NCC[C@H]1CC[C@]2(CC1)OOC1(O2)C2CC3CC(C2)CC1C3 (some centres unmarked) [OZ229] | 0.24 (≈ 0.781 nM) | – | – | – | – | – | – | 0.23 (≈ 0.748 nM) | – | – | – | – |
| O=C(NC[C@H]1CC[C@]2(CC1)OO[C@]1(O2)C2CC3CC(C2)CC1C3)c1cccnc1 [OZ273] | – | – | – | 11.7 days | 99.58 | – | – | – | 0.97 (≈ 2.43 nM) | 7.2 | 64 | – |
| CCOC(=O)NC[C@H]1CC[C@]2(CC1)OO[C@]1(O2)C2CC3CC(C2)CC1C3 [OZ289] | – | – | – | 13.4 days | 99.94 | – | – | – | – | 7.4 | 92 | 0.56 (≈ 1.53 nM) |
| NC(=O)CCNC[C@H]1CC[C@]2(CC1)OO[C@]1(O2)C2CC3CC(C2)CC1C3 [OZ319] | 0.41 (≈ 1.12 nM) | – | – | – | – | – | – | 0.91 (≈ 2.5 nM) | – | – | – | – |
| O=CNCC(=O)NC[C@H]1CC[C@]2(CC1)OO[C@]1(O2)C2CC3CC(C2)CC1C3 [OZ322] | – | – | – | 10.0 days | 98 | – | – | – | 0.9 (≈ 2.38 nM) | 9.4 | 61 | – |
| NCCC(=O)NC[C@H]1CC[C@]2(CC1)OO[C@]1(O2)C2CC3CC(C2)CC1C3 [OZ336] | – | – | – | 9.2 days | – | – | – | – | – | 9.6 | 98 | – |
| O=C(NC[C@H]1CC[C@]2(CC1)OO[C@]1(O2)C2CC3CC(C2)CC1C3)[C@@H]1CCCN1 [OZ337] | – | – | – | 8.6 days | – | – | – | – | – | – | 97 | – |
| N[C@H]1CCN(C(=O)C[C@H]2CC[C@]3(CC2)OO[C@]2(O3)C3CC4CC(C3)CC2C4)C1 [OZ338] | – | – | – | 9.8 days | – | – | – | – | – | 8.0 | – | – |
| N=C(N)NC(=O)C[C@H]1CC[C@]2(CC1)OO[C@]1(O2)C2CC3CC(C2)CC1C3 [OZ341] | – | – | – | 8.0 days | 97 | – | – | – | – | 7.0 | 32 | – |
| O=C(C[C@H]1CC[C@]2(CC1)OO[C@]1(O2)C2CC3CC(C2)CC1C3)N1CCS(=O)(=O)CC1 [OZ342] | – | – | – | 6.8 days | 27 | – | – | – | – | 6.4 | 0 | – |

From patent US6825230B2, “Spiro and dispiro 1,2,4-trixolane antimalarials” (Medicines for Malaria Venture MMV, priority 2002, dated 2004)
